This passage reports sEH activity and IC50 results from patent publication US11766419B2, “Mebeverine as soluble epoxide hydrolase inhibitor” (Banasthali Vidyapith, priority 2021, dated 2023).

In this experiment the target is T1, sEH (Homo sapiens, UniProt P34913).
T1 sequence (P34913 1-555): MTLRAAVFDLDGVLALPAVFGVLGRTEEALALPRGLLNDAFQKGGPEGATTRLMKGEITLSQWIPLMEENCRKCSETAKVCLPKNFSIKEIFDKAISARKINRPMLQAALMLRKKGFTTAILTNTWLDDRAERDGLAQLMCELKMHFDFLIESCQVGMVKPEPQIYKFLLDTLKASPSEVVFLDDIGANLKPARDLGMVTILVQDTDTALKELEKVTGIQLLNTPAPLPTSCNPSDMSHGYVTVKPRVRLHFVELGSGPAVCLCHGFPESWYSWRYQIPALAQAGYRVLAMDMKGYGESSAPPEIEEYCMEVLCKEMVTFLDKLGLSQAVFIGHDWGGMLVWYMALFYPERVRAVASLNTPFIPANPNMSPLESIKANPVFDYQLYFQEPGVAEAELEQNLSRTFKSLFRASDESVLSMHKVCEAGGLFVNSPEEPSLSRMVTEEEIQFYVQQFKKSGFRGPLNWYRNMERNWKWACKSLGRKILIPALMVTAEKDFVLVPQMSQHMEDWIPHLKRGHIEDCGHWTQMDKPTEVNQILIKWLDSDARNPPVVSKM
Description: In vitro sEH activity assay (PHOME substrate, fluorescence). The class given is biochemical. The protocol: Hydrolysis of PHOME by sEH results in the release of cyanohydrins that further decomposes to cyanide ion and 6-methoxy-2-naphthaldehyde (highly fluorescent). The fluorescence was analyzed at an excitation and emission wavelength of 330 nm and 465 nm respectively.

`C[C@H](CS)C(=O)N1CCC[C@H]1C(=O)O` [Captopril, captopril] returned a sEH activity (remaining enzyme activity) of 100%. In addition, for the setting “sEH, PHOME substrate”, the concentration for half-maximal inhibition (IC50) (commonly the concentration at which inhibition is half-maximal) was 693 nM.
